Data taken from publication PMC12409540 (ACS Omega, 2025).

Molecular target: Nurr1 protein (Homo sapiens, UniProt P43354)
Test: SPR
Format: binding

Sequence of Nurr1 protein (P43354 whole entry): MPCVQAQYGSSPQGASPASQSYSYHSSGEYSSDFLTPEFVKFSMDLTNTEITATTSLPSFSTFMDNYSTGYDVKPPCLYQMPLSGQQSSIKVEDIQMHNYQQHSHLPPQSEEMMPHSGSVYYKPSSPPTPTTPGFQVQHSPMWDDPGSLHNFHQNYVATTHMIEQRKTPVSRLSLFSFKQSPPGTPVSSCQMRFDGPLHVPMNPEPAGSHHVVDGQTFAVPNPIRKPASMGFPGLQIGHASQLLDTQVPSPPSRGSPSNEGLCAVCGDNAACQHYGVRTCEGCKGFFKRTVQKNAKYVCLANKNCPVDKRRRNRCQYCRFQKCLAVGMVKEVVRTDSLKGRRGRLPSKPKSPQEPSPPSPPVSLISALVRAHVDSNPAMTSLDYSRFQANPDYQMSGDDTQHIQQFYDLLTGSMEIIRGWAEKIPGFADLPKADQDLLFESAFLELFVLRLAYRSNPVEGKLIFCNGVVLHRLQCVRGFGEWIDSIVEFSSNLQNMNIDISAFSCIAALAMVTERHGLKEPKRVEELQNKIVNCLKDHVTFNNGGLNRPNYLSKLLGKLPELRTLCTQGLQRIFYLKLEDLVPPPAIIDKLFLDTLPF

Row | Structure (SMILES) | Kd
1 | CCN(CC)Cc1cc(Nc2ccnc3cc(Cl)ccc23)ccc1O [amodiaquine] | 37 µM
2 | CO[C@H]1C[C@H](O[C@H]2CC[C@]3(C=O)[C@H]4CC[C@]5(C)[C@@H](C6=CC(=O)OC6)CC[C@]5(O)[C@@H]4CC[C@]3(O)C2)O[C@H](C)[C@H]1O[C@@H]1O[C@H](CO[C@@H]2O[C@H](CO)[C@@H](O)[C@H](O)[C@H]2O)[C@@H](O)[C@H](O)[C@H]1O [compound 7, K-strophanthoside] | 23.1 µM
